{
  "source": "patent US20260042731A1",
  "about": "“(2,4-DICHLOROPHENOXY)ACETIC ACID ANALOGS” (CORTEVA AGRISCIENCE LLC, priority 2022, published 2026)",
  "key": {"[1]": {"tested_on": "Amaranthus rudis (AMATA), tall water hemp", "assay": "Postemergence herbicide evaluation, growth of Amaranthus rudis (AMATA)", "type": "in vivo", "details": "Amaranthus tuberculatus, post-emergence, read-out: Ave. AMATA, percent reduction in plant size relative to the untreated control; for pest or weed control at 280 g/ha: 280 g ae/ha; for pest or weed control at 560 g/ha: 560 g ae/ha"}, "[2]": {"tested_on": "Ambrosia artemisiifolia (AMBEL), common ragweed", "assay": "Postemergence herbicide evaluation, growth of Ambrosia artemisiifolia (AMBEL)", "type": "in vivo", "details": "Ambrosia artemisiifolia, post-emergence, read-out: AVE. AMBEL, percent reduction in plant size relative to the untreated control; for pest or weed control at 280 g/ha: 280 g ae/ha; for pest or weed control at 560 g/ha: 560 g ae/ha"}, "[3]": {"tested_on": "Abutilon theophrasti (ABUTH), velvetleaf", "assay": "Postemergence herbicide evaluation, growth of Abutilon theophrasti (ABUTH)", "type": "in vivo", "details": "Abutilon theophrasti, post-emergence, read-out: AVE. ABUTH, percent reduction in plant size relative to the untreated control; for pest or weed control at 280 g/ha: 280 g ae/ha; for pest or weed control at 560 g/ha: 560 g ae/ha"}, "[4]": {"tested_on": "Chenopodium album (CHEAL), common lambsquarters", "assay": "Postemergence herbicide evaluation, growth of Chenopodium album (CHEAL)", "type": "in vivo", "details": "Chenopodium album, post-emergence, read-out: Ave. CHEAL, percent reduction in plant size relative to the untreated control; for pest or weed control at 280 g/ha: 280 g ae/ha; for pest or weed control at 560 g/ha: 560 g ae/ha"}, "[5]": {"tested_on": "glyphosate resistant Conyza canadensis (L.) (ERICA), horseweed", "assay": "Postemergence herbicide evaluation, growth of Conyza canadensis (ERICA)", "type": "in vivo", "details": "Erigeron canadensis, post-emergence, read-out: Ave. ERICA, percent reduction in plant size relative to the untreated control; for pest or weed control at 280 g/ha: 280 g ae/ha; for pest or weed control at 560 g/ha: 560 g ae/ha"}, "[6]": {"assay": "Volatility of compounds measured by thermogravimetric analysis (TGA)", "type": "physicochemical"}, "[7]": {"tested_on": "weeds ABUTH, AMATA, AMBEL, CHEAL, ERICA", "assay": "Postemergence herbicide evaluation, overall average % weed control (ABUTH, AMATA, AMBEL, CHEAL, ERICA)", "type": "in vivo", "details": "post-emergence, read-out: Overall Ave % Weed Control; for pest or weed control at 280 g/ha: 280 g ae/ha; for pest or weed control at 560 g/ha: 560 g ae/ha"}, "[8]": {"tested_on": "Glycine max (Enlist E3 traited soybeans, GLXMA)", "details": "Enlist E3 soybeans"}, "[9]": {"tested_on": "ABUTH, AMATA, AMBEL, CHEAL, ERICA weeds", "assay": "Postemergence herbicide evaluation, overall average % weed control across ABUTH, AMATA, AMBEL, CHEAL, ERICA", "type": "in vivo", "description": "For example, the pesticidal activity may include herbicidal activity."}},
  "note": "Read-outs that look alike come from different tables or passages of the source.",
  "data": [
    {"smiles": "C[N+](C)(C)CCOC(=O)COc1ccc(Cl)cc1Cl.[Cl-]", "note": "[Compound E3, 2-(2-(2,4-Dichlorophenoxy)acetoxy)-N, N, N-trimethylethanaminium chloride]", "values": [
      {"measurement": "pest or weed control at 280 g/ha", "setting": "[1]; 168 h, 7 DAA", "result": 78, "unit": "%"},
      {"measurement": "pest or weed control at 560 g/ha", "setting": "[1]; 168 h, 7 DAA", "result": 78, "unit": "%"},
      {"measurement": "pest or weed control at 280 g/ha", "setting": "[1]; 336 h, 14 DAA", "result": 78, "unit": "%"},
      {"measurement": "pest or weed control at 560 g/ha", "setting": "[1]; 336 h, 14 DAA", "result": 85, "unit": "%"},
      {"measurement": "pest or weed control at 280 g/ha", "setting": "[1]; 504 h, 21 DAA", "result": 75, "unit": "%"},
      {"measurement": "pest or weed control at 560 g/ha", "setting": "[1]; 504 h, 21 DAA", "result": 83, "unit": "%"},
      {"measurement": "pest or weed control at 280 g/ha", "setting": "[2]; 168 h, 7 DAA", "result": 63, "unit": "%"},
      {"measurement": "pest or weed control at 560 g/ha", "setting": "[2]; 168 h, 7 DAA", "result": 75, "unit": "%"},
      {"measurement": "pest or weed control at 280 g/ha", "setting": "[2]; 336 h, 14 DAA", "result": 89, "unit": "%"},
      {"measurement": "pest or weed control at 560 g/ha", "setting": "[2]; 336 h, 14 DAA", "result": 93, "unit": "%"},
      {"measurement": "pest or weed control at 280 g/ha", "setting": "[2]; 504 h, 21 DAA", "result": 95, "unit": "%"},
      {"measurement": "pest or weed control at 560 g/ha", "setting": "[2]; 504 h, 21 DAA", "result": 98, "unit": "%"},
      {"measurement": "pest or weed control at 280 g/ha", "setting": "[3]; 168 h, 7 DAA", "result": 75, "unit": "%"},
      {"measurement": "pest or weed control at 560 g/ha", "setting": "[3]; 168 h, 7 DAA", "result": 83, "unit": "%"},
      {"measurement": "pest or weed control at 280 g/ha", "setting": "[3]; 336 h, 14 DAA", "result": 78, "unit": "%"},
      {"measurement": "pest or weed control at 560 g/ha", "setting": "[3]; 336 h, 14 DAA", "result": 93, "unit": "%"},
      {"measurement": "pest or weed control at 280 g/ha", "setting": "[3]; 504 h, 21 DAA", "result": 86, "unit": "%"},
      {"measurement": "pest or weed control at 560 g/ha", "setting": "[3]; 504 h, 21 DAA", "result": 97, "unit": "%"},
      {"measurement": "pest or weed control at 280 g/ha", "setting": "[4]; 168 h, 7 DAA", "result": 68, "unit": "%"},
      {"measurement": "pest or weed control at 560 g/ha", "setting": "[4]; 168 h, 7 DAA", "result": 70, "unit": "%"},
      {"measurement": "pest or weed control at 280 g/ha", "setting": "[4]; 336 h, 14 DAA", "result": 78, "unit": "%"},
      {"measurement": "pest or weed control at 560 g/ha", "setting": "[4]; 336 h, 14 DAA", "result": 73, "unit": "%"},
      {"measurement": "pest or weed control at 280 g/ha", "setting": "[4]; 504 h, 21 DAA", "result": 80, "unit": "%"},
      {"measurement": "pest or weed control at 560 g/ha", "setting": "[4]; 504 h, 21 DAA", "result": 77, "unit": "%"},
      {"measurement": "pest or weed control at 280 g/ha", "setting": "[5]; 168 h, 7 DAA", "result": 73, "unit": "%"},
      {"measurement": "pest or weed control at 560 g/ha", "setting": "[5]; 168 h, 7 DAA", "result": 78, "unit": "%"},
      {"measurement": "pest or weed control at 280 g/ha", "setting": "[5]; 336 h, 14 DAA", "result": 83, "unit": "%"},
      {"measurement": "pest or weed control at 560 g/ha", "setting": "[5]; 336 h, 14 DAA", "result": 88, "unit": "%"},
      {"measurement": "pest or weed control at 280 g/ha", "setting": "[5]; 504 h, 21 DAA", "result": 95, "unit": "%"},
      {"measurement": "pest or weed control at 560 g/ha", "setting": "[5]; 504 h, 21 DAA", "result": 93, "unit": "%"},
      {"measurement": "TGA Data (rate of weight loss, volatility)", "setting": "[6]", "result": 2.4, "unit": "µg/min"},
      {"measurement": "pest or weed control at 280 g/ha", "setting": "[7]; 168 h, 7 DAA", "result": 71, "unit": "%"},
      {"measurement": "pest or weed control at 560 g/ha", "setting": "[7]; 168 h, 7 DAA", "result": 77, "unit": "%"},
      {"measurement": "pest or weed control at 280 g/ha", "setting": "[7]; 336 h, 14 DAA", "result": 81, "unit": "%"},
      {"measurement": "pest or weed control at 560 g/ha", "setting": "[7]; 336 h, 14 DAA", "result": 86, "unit": "%"},
      {"measurement": "pest or weed control at 280 g/ha", "setting": "[7]; 504 h, 21 DAA", "result": 86, "unit": "%"},
      {"measurement": "pest or weed control at 560 g/ha", "setting": "[7]; 504 h, 21 DAA", "result": 89, "unit": "%"},
      {"measurement": "AVE. GLXMA, percent reduction in plant size relative to the untreated control", "setting": "[8]; 280 g ae/ha, 7 DAA", "result": 0, "unit": "%"},
      {"measurement": "AVE. GLXMA, percent reduction in plant size relative to the untreated control", "setting": "[8]; 280 g ae/ha, 14 DAA", "result": 0, "unit": "%"},
      {"measurement": "AVE. GLXMA, percent reduction in plant size relative to the untreated control", "setting": "[8]; 280 g ae/ha, 21 DAA", "result": 3, "unit": "%"},
      {"measurement": "AVE. GLXMA, percent reduction in plant size relative to the untreated control", "setting": "[8]; 560 g ae/ha, 7 DAA", "result": 0, "unit": "%"},
      {"measurement": "AVE. GLXMA, percent reduction in plant size relative to the untreated control", "setting": "[8]; 560 g ae/ha, 14 DAA", "result": 0, "unit": "%"},
      {"measurement": "AVE. GLXMA, percent reduction in plant size relative to the untreated control", "setting": "[8]; 560 g ae/ha, 21 DAA", "result": 0, "unit": "%"}
    ]},
    {"smiles": "CN(NC(=O)COc1ccc(Cl)cc1Cl)c1ccccc1", "note": "[Compound D11, 2-(2,4-Dichlorophenoxy)-N′-methyl-N′-phenylacetohydrazide]", "values": [
      {"measurement": "TGA Data (rate of weight loss, volatility)", "setting": "[6]", "result": 0.06, "unit": "µg/min"},
      {"measurement": "Overall Ave % Weed Control", "setting": "[9]; 280 g ae/ha, 7 DAA", "result": 63, "unit": "%"},
      {"measurement": "Overall Ave % Weed Control", "setting": "[9]; 280 g ae/ha, 14 DAA", "result": 76, "unit": "%"},
      {"measurement": "Overall Ave % Weed Control", "setting": "[9]; 280 g ae/ha, 21 DAA", "result": 80, "unit": "%"},
      {"measurement": "Overall Ave % Weed Control", "setting": "[9]; 560 g ae/ha, 7 DAA", "result": 69, "unit": "%"},
      {"measurement": "Overall Ave % Weed Control", "setting": "[9]; 560 g ae/ha, 14 DAA", "result": 82, "unit": "%"},
      {"measurement": "Overall Ave % Weed Control", "setting": "[9]; 560 g ae/ha, 21 DAA", "result": 89, "unit": "%"}
    ]}
  ]
}
